According to PMC12527173, “Cytotoxic, anti-inflammatory, antioxidant, and anti-glyoxalase-I evaluation of chelating substances: In silico and in vitro study” (PLOS One, 2025):
Read-outs that look alike come from different tables or passages of the source.

Assays:
[1] = biological target: T1, human recombinant Glo-I enzyme (rhGlo-I) (Homo sapiens, UniProt Q04760); experiment: Glyoxalase-I (Glo-I) enzyme inhibition assay; assay type: biochemical; settings: for Maximum (descriptive statistics of enzyme inhibition): highest mean inhibition over the tested concentrations; for Maximum (descriptive statistics of enzyme inhibition) / Minimum (descriptive statistics of enzyme inhibition): in % (unit assumed); for Minimum (descriptive statistics of enzyme inhibition): lowest mean inhibition over the tested concentrations
T1 construct: N-terminal Met and 6-His tag (N); purchased R&D Systems; host or cells: E. coli
T1 sequence (Q04760 2-184 limits assumed): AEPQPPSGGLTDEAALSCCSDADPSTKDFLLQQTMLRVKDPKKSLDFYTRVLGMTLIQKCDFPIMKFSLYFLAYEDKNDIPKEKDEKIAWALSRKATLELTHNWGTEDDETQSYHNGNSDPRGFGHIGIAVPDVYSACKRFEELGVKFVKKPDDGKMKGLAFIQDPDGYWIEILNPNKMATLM
Protocol: Solvents and chemicals were procured from Sigma-Aldrich Co. and Acros (ThermoFisher Scientific, New Jersey, USA). […] The enzyme was obtained from R&D Systems® Corporation in the USA. Synthetic compounds were tested for their inhibitory effects on the enzyme using a 10 mM DMSO stock concentration in triplicates. The manufacturer’s protocol from R & D Systems, Inc. in Minneapolis, MN, USA was followed for the in vitro experiments. The reconstituted Glo-I enzyme (0.5 mg/mL) was thawed after being stored at −70°C in sterile deionized water. […] The monitoring was done at a wavelength of 240 nm for 200 seconds at 37°C. The substrate mixture was freshly concocted with a concentration of 100 mM glutathione and 100 mM methylglyoxal (MG) in assay buffer containing 0.5 M sodium phosphate dibasic/monobasic. It was then left undisturbed at room temperature for 15 minutes […]. The selected compounds for investigation are subsequently produced in testing concentration ranges using a 0.1 M solution of sodium phosphate dibasic/monobasic with a pH range of 7–7.2. The blank contained an assay buffer with MG substrate. The test compounds were combined with human recombinant Glo-I (50 µM) in a 96-well plate to determine their kinetic behavior.

[2] = test system: HT-29 colorectal cancer cell line; experiment: SRB cytotoxicity assay, HT29; assay type: cell-based; settings: Homo sapiens, 72 h incubation, n = 12, read-out: Cytotoxicity (as of %Control) IC50 value HT29
Protocol: (§1) The cancer cell lines were cultured in DMEM supplemented with 10% FBS (Bio Whittaker, Verviers, Belgium), HEPES Buffer (10 mM), gentamicin (50 µg/mL), L-glutamine (100 μg/mL), streptomycin ([…]), penicillin (100 µg/mL), and 4-(2-hydroxyethyl)-1-piperazineethanesulfonic acid (HEPES) Buffer (Sigma, St. Luis, MO, USA). The Sulforhodamine B used was obtained from Santa Cruz Biotechnology, Inc. in Texas, USA. […] Periodontal ligament fibroblasts (PDL) were utilized to assess specific cytotoxicity. Cancer cell lines that have survived offer several benefits. They provide a consistent and uninterrupted source of cells, so bypassing any ethical concerns related to the use of human tissue. Additionally, they are cost-effective. The cytotoxicity levels were assessed using the Sulforhodamine B (SRB) colorimetric assay, provided by Santa Cruz Biotechnology, Inc. in Texas, USA. The Spectro Scan 80D UV-VIS spectrophotometer, manufactured by Sedico Ltd. in Nicosia, Cyprus, was employed for this cytotoxicity screening. The cells were co-incubated with substances or a reference agent at various doses ranging from 5 to 200 μg/mL. […] The reduction in cell viability was analyzed by plotting Dose-response curves and expressing the data as a percentage of the control optical density. The IC50 values were obtained using regression analysis.

[3] = test system: cancer cell lines (panel); experiment: SRB cytotoxicity assay, ranges stated over several cancer cell lines; assay type: cell-based; settings: Homo sapiens
Protocol: as §1

[4] = read-out: Trial one (%inhibtion)
[5] = read-out: Trial three (%inhibtion)
[6] = read-out: Trial two (%inhibtion)
[7] = 3.125 µM, read-out: Trial one (%inhibtion)
[8] = 3.125 µM, read-out: Trial three (%inhibtion)
[9] = 3.125 µM, read-out: Trial two (%inhibtion)
[10] = 6.25 µM, read-out: Trial one (%inhibtion)
[11] = 6.25 µM, read-out: Trial three (%inhibtion)
[12] = 6.25 µM, read-out: Trial two (%inhibtion)
[13] = 12.5 µM, read-out: Trial one (%inhibtion)
[14] = 12.5 µM, read-out: Trial three (%inhibtion)
[15] = 12.5 µM, read-out: Trial two (%inhibtion)
[16] = 25 µM, read-out: Trial one (%inhibtion)
[17] = 25 µM, read-out: Trial three (%inhibtion)
[18] = 25 µM, read-out: Trial two (%inhibtion)
[19] = 50 µM, read-out: Trial one (%inhibtion)
[20] = 50 µM, read-out: Trial three (%inhibtion)
[21] = 50 µM, read-out: Trial two (%inhibtion)
[22] = human recombinant Glo-I, triplicates, read-out: IC50 µM ± SD

| SMILES | inhibition at 3.125 µM [1, 7] | inhibition at 3.125 µM [1, 8] | inhibition at 3.125 µM [1, 9] | inhibition at 6.25 µM [1, 10] | inhibition at 6.25 µM [1, 11] | inhibition at 6.25 µM [1, 12] | inhibition at 12.5 µM [1, 13] | inhibition at 12.5 µM [1, 14] | inhibition at 12.5 µM [1, 15] | inhibition at 25 µM [1, 16] | inhibition at 25 µM [1, 17] | inhibition at 25 µM [1, 18] | inhibition at 50 µM [1, 19] | inhibition at 50 µM [1, 20] | inhibition at 50 µM [1, 21] | Maximum (descriptive statistics of enzyme inhibition) [1] | IC50 [1, 22] | Minimum (descriptive statistics of enzyme inhibition) [1] | IC50 [2] | further results |
| --- | --- | --- | --- | --- | --- | --- | --- | --- | --- | --- | --- | --- | --- | --- | --- | --- | --- | --- | --- | --- |
| C[C@]12CC[C@@H]3c4ccc(O)c(O)c4CC[C@H]3[C@@H]1CC[C@@H]2O [4-hydroxy-estradiol] | 93% | 95.6% | 96.1% | 95.6% | 96.1% | 97.7% | 99.8% | 99.3% | 98.7% | 102% | 104% | 102% | 102% | 101% | 101% | 102.5 | 0.22 µM | 20.07 | 118 ± 4.17 µM | inhibition at 0.09765 µM [1, 4]: 18%; inhibition at 0.09765 µM [1, 5]: 20.6%; inhibition at 0.09765 µM [1, 6]: 21.7%; inhibition at 0.1953 µM [1, 4]: 57.6%; inhibition at 0.1953 µM [1, 5]: 59.2%; inhibition at 0.1953 µM [1, 6]: 55.5%; inhibition at 0.3906 µM [1, 4]: 69.7%; inhibition at 0.3906 µM [1, 5]: 66%; inhibition at 0.3906 µM [1, 6]: 67.1%; inhibition at 0.7812 µM [1, 4]: 80.8%; inhibition at 0.7812 µM [1, 5]: 81.3%; inhibition at 0.7812 µM [1, 6]: 82.9%; inhibition at 1.562 µM [1, 4]: 99.8%; inhibition at 1.562 µM [1, 5]: 94%; inhibition at 1.562 µM [1, 6]: 91.4% |
| O=c1cc(O)cc(/C=C/c2ccc(O)c(O)c2)o1 [Hispidin] | 10.9% | 20.2% | 4.72% | 19.1% | 24% | 10% | 29.5% | 34.3% | 19.2% | 47.9% | 43.5% | 32.4% | 53.5% | 54.5% | 44.3% | 50.76 | 36.4 ± 16.1 µM | 11.95 | 82.75 ± 0.78 µM |  |
| O=C1c2ccc(O)c(O)c2C(=O)c2c(O)ccc(O)c21 [Quinalizarin] | 22.8% | 28.6% | 19.5% | 32.6% | 33.7% | 28.6% | 37.2% | 41.8% | 35.4% | 42.7% | 43.6% | 46.6% | 55.5% | 55.3% | 59.9% | 56.90 | 33.4 ± 12.6 µM | 23.66 | 144 ± 15.6 µM |  |
| CC(C)=CC[C@@H](O)C1=CC(=O)c2c(O)ccc(O)c2C1=O [Shikonin] |  |  |  |  |  |  |  |  |  |  |  |  |  |  |  | 100.7 |  | 23.58 | 142.3 ± 0.76 µM | IC50 [1]: 8.1 µM; inhibition at 3.125 µM [1, 4]: 16.9%; inhibition at 6.25 µM [1, 4]: 34.8%; inhibition at 12.5 µM [1, 4]: 59.4%; inhibition at 25 µM [1, 4]: 72.5%; inhibition at 50 µM [1, 4]: 104%; inhibition at 3.125 µM [1, 5]: 30%; inhibition at 6.25 µM [1, 5]: 51.3%; inhibition at 12.5 µM [1, 5]: 61%; inhibition at 25 µM [1, 5]: 73.9%; inhibition at 50 µM [1, 5]: 101%; inhibition at 3.125 µM [1, 6]: 23.8%; inhibition at 6.25 µM [1, 6]: 45.8%; inhibition at 12.5 µM [1, 6]: 65.1%; inhibition at 25 µM [1, 6]: 74.2%; inhibition at 50 µM [1, 6]: 96.9% |
| Cc1ccc(C(=O)c2cc(O)c(O)c([N+](=O)[O-])c2)cc1 [Tolcapone, reference compound] | 12.3% | 20.4% | 19.4% | 28% | 36.3% | 39.7% | 54.2% | 56.5% | 60.9% | 78.1% | 80.9% | 82.1% | 96.1% | 102% | 97.6% | 98.66 | 9.6 µM | 17.38 | 63.3 ± 1.03 µM |  |
| CC(/C=C/C(=O)NO)=C\[C@@H](C)C(=O)c1ccc(N(C)C)cc1 [Trichostatin A, reference compound] | 13.2% | 7.44% | 2.77% | 22.3% | 14.2% | 16.5% | 29.4% | 24.7% | 25% | 39.7% | 33.7% | 38.4% | 52.1% | 38.8% | 51.1% | 47.33 | 43.5 ± 15.6 µM | 7.808 | 27 ± 0.85 µM | IC50 ([3]; Pancreatic cancer cell, after 72 hours of incubation, read-out: IC50, colorectal and pancreatic cancer cells): ≤ 27 µM; IC50 ([3]; A375, A549, PC3, MCF7, T47D, HeLa, read-out: IC50 range, decreases in viability in other cancer cell cultures): 1.4 to 14.7 µM; IC50 ([3]; CACO2, HCT116, SW620, HT29, read-out: IC50 range, anti-proliferation in colorectal cancer cells): 14 to 27 µM; IC50 ([3]; Table 3 cell lines, read-out: IC50, skin melanoma, lung carcinoma, mammary and cervix adenocarcinomas): < 10 µM |
